Test [1] addresses T1, Alpha-2B adrenergic receptor (Homo sapiens, UniProt P18089).
T1 sequence (P18089 whole entry): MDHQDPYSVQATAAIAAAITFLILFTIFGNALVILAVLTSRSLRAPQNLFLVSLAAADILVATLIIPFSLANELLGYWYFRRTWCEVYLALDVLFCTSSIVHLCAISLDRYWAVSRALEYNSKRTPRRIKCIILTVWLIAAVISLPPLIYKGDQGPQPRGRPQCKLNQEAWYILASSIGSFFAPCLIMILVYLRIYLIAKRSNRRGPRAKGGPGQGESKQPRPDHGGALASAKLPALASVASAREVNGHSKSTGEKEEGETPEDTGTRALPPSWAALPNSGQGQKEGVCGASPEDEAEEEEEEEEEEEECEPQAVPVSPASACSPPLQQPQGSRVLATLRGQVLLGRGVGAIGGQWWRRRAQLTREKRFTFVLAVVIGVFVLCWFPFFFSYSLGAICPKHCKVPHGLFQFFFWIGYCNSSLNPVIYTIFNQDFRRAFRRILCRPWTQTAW
In words: Displacement of [3H]RX821002 from human adrenergic alpha-2B receptor expressed in CHO cells. The test is classed as cell-based. For orientation: Loss of bound radioactivity is the signal in a displacement assay; it reports binding, not function.

Test [2] addresses T2, Alpha-2A adrenergic receptor (Homo sapiens, UniProt P08913).
T2 sequence (P08913 whole entry): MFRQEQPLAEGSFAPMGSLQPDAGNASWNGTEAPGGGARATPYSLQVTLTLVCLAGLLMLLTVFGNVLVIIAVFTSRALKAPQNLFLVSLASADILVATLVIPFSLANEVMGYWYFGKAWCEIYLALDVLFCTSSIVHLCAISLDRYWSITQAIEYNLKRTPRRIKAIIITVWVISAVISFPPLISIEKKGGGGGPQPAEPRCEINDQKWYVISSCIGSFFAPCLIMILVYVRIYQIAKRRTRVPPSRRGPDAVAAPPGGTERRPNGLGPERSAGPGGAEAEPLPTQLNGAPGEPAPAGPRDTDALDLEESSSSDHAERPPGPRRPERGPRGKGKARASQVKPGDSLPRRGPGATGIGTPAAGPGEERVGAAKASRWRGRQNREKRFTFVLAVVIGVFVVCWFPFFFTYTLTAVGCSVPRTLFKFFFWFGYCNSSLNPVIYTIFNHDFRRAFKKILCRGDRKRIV
The test is classed as functional, cell-based, CHO.
Description: Agonist activity at human adrenergic alpha-2A receptor expressed in CHO cells assessed as extracellular acidification by cytosensor microphysiometry

Test [3] deals with T2, Alpha-2A adrenergic receptor. Briefly: Displacement of [3H]RX821002 from human adrenergic alpha2A receptor expressed in CHO cells. The test is classed as cell-based.
Test [4] deals with T3, Alpha-2C adrenergic receptor (Homo sapiens, UniProt P18825).
T3 sequence (P18825 whole entry): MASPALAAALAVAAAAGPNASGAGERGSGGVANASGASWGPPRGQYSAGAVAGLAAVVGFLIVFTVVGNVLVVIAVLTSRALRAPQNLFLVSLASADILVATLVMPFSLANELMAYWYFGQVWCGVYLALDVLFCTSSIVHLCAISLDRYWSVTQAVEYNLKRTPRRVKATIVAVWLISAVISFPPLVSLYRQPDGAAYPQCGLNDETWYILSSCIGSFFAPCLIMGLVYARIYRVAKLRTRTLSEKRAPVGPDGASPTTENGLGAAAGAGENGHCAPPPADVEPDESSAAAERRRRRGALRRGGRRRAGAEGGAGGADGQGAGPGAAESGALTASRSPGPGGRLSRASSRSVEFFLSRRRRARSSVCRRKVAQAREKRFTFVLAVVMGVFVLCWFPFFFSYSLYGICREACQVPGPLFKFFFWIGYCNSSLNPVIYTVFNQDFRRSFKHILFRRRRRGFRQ
The test is classed as functional, cell-based, CHO.
Description: Agonist activity at human adrenergic alpha-2C receptor expressed in CHO cells assessed as extracellular acidification by cytosensor microphysiometry

Test [5] deals with T3, Alpha-2C adrenergic receptor. Briefly: Displacement of [3H]RX821002 from human adrenergic Alpha-2C receptor expressed in CHO cells. The test is classed as cell-based.
In test [6] the target is T1, Alpha-2B adrenergic receptor. In words: Agonist activity at human adrenergic alpha-2B receptor expressed in CHO cells assessed as extracellular acidification by cytosensor microphysiometry. The format is functional, cell-based.
In test [7] the target is T3, Alpha-2C adrenergic receptor. Briefly: (§1) Agonist activity at human adrenergic Alpha-2C receptor expressed in CHO cells assessed as inhibition of forskolin-induced cAMP accumulation. The format is functional, cell-based. In general terms: cAMP levels reflect the balance of adenylyl cyclase and phosphodiesterase activity.
Test [8] concerns the target T4, Alpha-2C adrenergic receptor (Homo sapiens) (UniProt P18825).
T4 sequence (whole entry): T3 sequence (P18825 whole entry)
The test is described as §1. The format is functional, cell-based.

Test [9] has as its target T5, Alpha-2A adrenergic receptor (Homo sapiens) (UniProt P08913).
T5 sequence (whole entry): T2 sequence (P08913 whole entry)
Briefly: (§2) Agonist activity at human adrenergic alpha-2A receptor expressed in CHO cells assessed as inhibition of forskolin-induced cAMP accumulation. The test is classed as functional, cell-based.

Test [10] deals with T2, Alpha-2A adrenergic receptor. Described as §2. The format is functional, cell-based.
For a further test, the target named is Nischarin (Homo sapiens, UniProt Q9Y2I1). Briefly: Binding affinity to imidazoline receptor 1.
Sequence of Nischarin (Q9Y2I1 whole entry): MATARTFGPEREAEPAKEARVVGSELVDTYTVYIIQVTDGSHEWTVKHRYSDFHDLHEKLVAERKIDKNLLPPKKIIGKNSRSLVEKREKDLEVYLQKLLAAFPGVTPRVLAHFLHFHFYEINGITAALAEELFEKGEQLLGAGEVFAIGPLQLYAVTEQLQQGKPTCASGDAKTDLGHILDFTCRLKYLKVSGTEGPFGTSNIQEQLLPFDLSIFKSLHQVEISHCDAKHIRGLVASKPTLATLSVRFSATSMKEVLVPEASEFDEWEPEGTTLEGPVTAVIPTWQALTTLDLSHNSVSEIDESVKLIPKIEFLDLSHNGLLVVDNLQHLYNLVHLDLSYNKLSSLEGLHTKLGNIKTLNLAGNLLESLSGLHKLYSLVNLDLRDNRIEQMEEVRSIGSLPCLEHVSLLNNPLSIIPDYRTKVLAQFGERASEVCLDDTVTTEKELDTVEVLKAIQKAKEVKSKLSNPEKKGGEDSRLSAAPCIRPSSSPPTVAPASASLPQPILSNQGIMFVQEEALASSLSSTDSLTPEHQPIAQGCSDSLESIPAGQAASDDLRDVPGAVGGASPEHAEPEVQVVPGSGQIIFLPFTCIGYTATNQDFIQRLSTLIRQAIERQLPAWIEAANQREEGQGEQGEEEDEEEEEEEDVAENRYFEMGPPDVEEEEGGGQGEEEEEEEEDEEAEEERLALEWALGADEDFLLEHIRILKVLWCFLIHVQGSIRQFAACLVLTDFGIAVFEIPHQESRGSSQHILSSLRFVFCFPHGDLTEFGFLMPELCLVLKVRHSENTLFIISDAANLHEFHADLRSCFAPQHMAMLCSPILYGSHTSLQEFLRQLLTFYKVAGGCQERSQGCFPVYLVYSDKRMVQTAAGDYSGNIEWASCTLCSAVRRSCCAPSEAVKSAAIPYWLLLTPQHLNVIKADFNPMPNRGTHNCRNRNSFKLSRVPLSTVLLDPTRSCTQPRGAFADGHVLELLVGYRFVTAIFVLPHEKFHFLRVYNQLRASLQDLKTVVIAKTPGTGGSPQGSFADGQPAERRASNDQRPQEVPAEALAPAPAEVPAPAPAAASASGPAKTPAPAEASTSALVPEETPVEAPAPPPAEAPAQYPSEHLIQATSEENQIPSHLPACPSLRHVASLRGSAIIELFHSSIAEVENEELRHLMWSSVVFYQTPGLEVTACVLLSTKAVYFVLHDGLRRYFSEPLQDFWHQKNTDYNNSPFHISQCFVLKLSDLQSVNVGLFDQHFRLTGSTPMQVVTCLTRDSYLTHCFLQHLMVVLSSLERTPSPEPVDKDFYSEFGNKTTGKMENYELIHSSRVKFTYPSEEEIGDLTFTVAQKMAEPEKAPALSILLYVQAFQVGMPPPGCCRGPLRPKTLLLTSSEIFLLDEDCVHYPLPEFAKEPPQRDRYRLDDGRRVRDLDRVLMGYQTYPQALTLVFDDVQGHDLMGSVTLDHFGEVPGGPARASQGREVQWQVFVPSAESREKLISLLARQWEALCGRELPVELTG

Calls of active or inactive are those of the source. The rule behind the calls is not given here.

What is called Ki is the dissociation constant of the complex between target and ligand, obtained from inhibition or displacement. As a reminder, the EC50 is the concentration needed to bring the measured effect to its halfway point. As for `CC(Oc1ccccc1-c1cccc(N)c1)C1=NCCN1` (stereo unspecified), the Ki in test [1] is 479 nM; in test [3], 37.2 nM; in test [5] it was 309 nM. The EC50 in [2] is 257 nM; in [4] it was 501 nM.
As for `CC(Oc1ccccc1-c1ccccc1[N+](=O)[O-])C1=NCCN1` (stereo unspecified), the values for the Ki in [1], in test [3] and in [5] were 1550 nM, 174 nM and 1230 nM, respectively.
Take `Cc1ccc(-c2ccccc2OC(C)C2=NCCN2)cc1` (stereo unspecified): the Ki in test [1] is 398 nM; in test [3], 41.7 nM; in [5], 251 nM. This compound also gave an EC50 in test [4] of 832 nM.
For the compound `CC(Nc1ccccc1-c1ccccc1)C1=NCCN1` (stereo unspecified), the Ki was 1150 nM in [1], 91.2 nM in [3] and 708 nM in [5]. Also, the results for the EC50 in test [6], in test [2] and in [4] were 3800 nM, 389 nM and 93.3 nM, respectively.
For the compound `c1ccc(-c2ccccc2C2OC2C2=NCCN2)cc1` (cis isomer), the values for the Ki in test [1], in test [3] and in test [5] were 20000 nM, 1230 nM and 6460 nM, respectively. Further, the concentration giving a half-maximal response (EC50) was 3470 nM in test [2] and 2690 nM in [4].
In the case of `CC(Sc1ccccc1-c1ccccc1)C1=NCCN1` (stereo unspecified), the Ki was 3550 nM in test [1], 339 nM in test [3] and 708 nM in [5].
As to `CC(Oc1ccccc1-c1cccc(O)c1)C1=NCCN1` (stereo unspecified), the values for the Ki in [1], in test [3] and in test [5] were 355 nM, 27.5 nM and 17.8 nM, respectively. For the same compound, the figures for the EC50 in test [6] and in test [4] were 5250 nM and 46.8 nM, respectively.
Take `CC(Oc1ccccc1-c1ccccn1)C1=NCCN1` (stereo unspecified): the Ki in [1] is 3310 nM; in test [3], 1200 nM; in test [5], 1260 nM.
With `CC(Oc1ccccc1-c1cccnc1)C1=NCCN1` (stereo unspecified), the Ki in [1] is 933 nM; in test [3], 138 nM; in [5], 64.6 nM. Besides, the EC50 was 39.8 nM in test [7]; 589 nM in [10]; 1000 nM in [6]; 316 nM in test [2]; 50.1 nM in test [4]. The Intrinsic activity was determined as 1 in test [8] and 0.5 in test [9].
Regarding `CC(Oc1ccccc1-c1ccncc1)C1=NCCN1` (stereo unspecified), the Ki in [1] was 2690 nM; in [3] it was 282 nM; in test [5], 1450 nM.
For the compound `CC(Oc1ccccc1-c1ccccc1)C1=NCCN1` (stereo unspecified) [BIPHENYLINE], the Ki in test [1] was 501 nM; in [3], 47.9 nM; on Nischarin it was 126 nM; in test [5], 200 nM. The results for the EC50 in test [6], in test [2] and in test [4] were 646 nM, 115 nM and 57.5 nM, respectively.
With `CC(Oc1ccccc1-c1ccccc1O)C1=NCCN1` (stereo unspecified), the inhibitory constant (Ki) in test [1] is 1000 nM; in test [3], 309 nM; in test [5] it was 1620 nM.
With `CC(Oc1ccccc1-c1cccs1)C1=NCCN1` (stereo unspecified), the results for the inhibition constant Ki in [1], in test [3] and in test [5] were 214 nM, 17 nM and 72.4 nM, respectively. Moreover, the EC50 is 1000 nM in test [6], 41.7 nM in test [2] and 58.9 nM in test [4].
With `CC(Oc1ccccc1-c1ccc([N+](=O)[O-])cc1)C1=NCCN1` (stereo unspecified), the results for the Ki in test [1], in [3] and in [5] were 501 nM, 123 nM and 302 nM, respectively.
Consider `Cc1cccc(-c2ccccc2OC(C)C2=NCCN2)c1` (stereo unspecified), for which the Ki in [1] was 537 nM; in test [3], 51.3 nM; in [5], 245 nM. Also, the EC50 in test [4] was 1580 nM.
For the compound `CC(Oc1ccccc1-c1ccccc1)C1=NCCS1` (stereo unspecified), the Ki in test [1], in [3] and in test [5] was above 10000 nM throughout.
Take `Cc1ccccc1-c1ccccc1OC(C)C1=NCCN1` (stereo unspecified): the inhibitory constant (Ki) in test [1] was 832 nM; in test [3], 46.8 nM; in [5], 234 nM. Besides, the midpoint of the response in test [4], the EC50, lay at 363 nM.
Regarding `c1ccc(-c2ccccc2C2OC2C2=NCCN2)cc1` (stereo unspecified), the figures for the Ki in test [1], in test [3] and in test [5] were 1230 nM, 1510 nM and 4270 nM, respectively.
Regarding `CC(Oc1ccccc1-c1ccc(O)cc1)C1=NCCN1` (stereo unspecified), the Ki is 813 nM in test [1], 33.9 nM in [3] and 331 nM in test [5].
With `CC(Oc1ccccc1-c1cccc(F)c1)C1=NCCN1` (stereo unspecified), the figures for the Ki in [1], in test [3] and in test [5] were 269 nM, 14.8 nM and 17 nM, respectively. In addition, the EC50 in [2] was 105 nM; in [4], 60.3 nM.
With `CC(Oc1ccccc1-c1ccccc1)C1=NCCO1` (stereo unspecified), the Ki in test [1] is 10000 nM; in test [3], 8130 nM; in test [5], 5890 nM.
Turning to `CC(Oc1ccccc1-c1cccc([N+](=O)[O-])c1)C1=NCCN1` (stereo unspecified), the Ki in [1] was 661 nM; in test [3] it was 60.3 nM; in [5] it was 234 nM. The EC50 in test [7] was 158 nM; in test [4] it was 100 nM. For the same compound, in [8], the Intrinsic activity was 0.6. The result in [9] was inactive.
Regarding `CC(Oc1ccccc1-c1ccccc1)C1=NCCC1` (stereo unspecified), the inhibition constant (Ki) in test [1] is 10000 nM; in test [3] it was 8130 nM; in test [5], 5890 nM.
As to `CC(Oc1ccccc1-c1ccsc1)C1=NCCN1` (stereo unspecified), the Ki in test [1] is 417 nM; in test [3] it was 45.7 nM; in test [5], 132 nM. In addition, the EC50 in [2] is 75.9 nM; in [4], 93.3 nM.
